Test results as given in EP2487157A1, “Enantioselective synthesis method of 4-aminoalcoholquinoline derivatives and the use” (Université de Picardie Jules Verne, priority 2011, dated 2012).
Values after ≈ are worked out from the molar mass of the structure shown. Read-outs that look alike come from different tables or passages of the source.

Experiments:
SAAM 86 = assay: Antibacterial test, MIC by CLSI broth dilution; type: cell-based, Staphylococcus aureus; details: SAAM 86, clinical strain resistant to methicillin; 18 to 24 h at 37°C
Description: (§1) The minimum inhibitory concentrations (MICs) were determined according to the recommendations of the Clinical and Laboratory Standards Institute (CLSI)^[27]. […] After incubation for 18 to 24 h (48 h for Enterococcus faecalis) at 37°C, the MIC was determined as the product concentration of the first well with no visual signs of bacterial growth (no disorder in the well). […] Table6. The antibacterial effects of the compounds

SAAM 69 = assay: Antibacterial test, MIC by CLSI broth dilution; type: cell-based, Staphylococcus aureus; details: SAAM 69, clinical strain resistant to methicillin; 18 to 24 h at 37°C
Description: as §1

SAAM 98 = assay: Antibacterial test, MIC by CLSI broth dilution; type: cell-based, Staphylococcus aureus; details: SAAM 98, clinical strain resistant to methicillin; 18 to 24 h at 37°C
Description: as §1

SAAM 12 = assay: Antibacterial test, MIC by CLSI broth dilution; type: cell-based, Staphylococcus aureus; details: SAAM 12, clinical strain resistant to methicillin; 18 to 24 h at 37°C
Description: as §1

SAAM 27 = assay: Antibacterial test, MIC by CLSI broth dilution; type: cell-based, Staphylococcus aureus; details: SAAM 27, clinical strain resistant to methicillin; 18 to 24 h at 37°C
Description: as §1

SAAM 51 = assay: Antibacterial test, MIC by CLSI broth dilution; type: cell-based, Staphylococcus aureus; details: SAAM 51, clinical strain resistant to methicillin; 18 to 24 h at 37°C
Description: as §1

SAAM 95 = assay: Antibacterial test, MIC by CLSI broth dilution; type: cell-based, Staphylococcus aureus; details: SAAM 95, clinical strain resistant to methicillin; 18 to 24 h at 37°C
Description: as §1

SAAM 64 = assay: Antibacterial test, MIC by CLSI broth dilution; type: cell-based, Staphylococcus aureus; details: SAAM 64, clinical strain resistant to methicillin; 18 to 24 h at 37°C
Description: as §1

[1] = system: Plasmodium falciparum sensitive (3D7); assay: Antimalarial test, tritiated hypoxanthine incorporation, sensitive clone 3D7; type: cell-based; details: read-out: 50% inhibitory concentration followed by uncertainty about the value expressed in percentage
Description: (§2) Screenings of the compound according to the present invention (1f, 1h, 1i) and their isomers (1a, 1c, 1d)on strains of Plasmodium falciparum sensitive (3D7) and chloroquine resistant (W2) were realized.
(§3) The Clones of W2 and 3D7 were grown. […] Melfloquine (MQ) at the same concentrations and chloroquine (CQ) at the concentrations adapted to each clone were used as the Controls. 8 negative controls were distributed on each plate.
(§4) Then, the molecules to be tested were diluted extemporaneously in the above preparation of the plates. The growth medium was deposited after drying plates. The study was initiated when the growth medium was at the ring stage and then stopped after 1 parasitic cycle (45h).
(§5) The activity was calculated by using the Pk-Fit software on all the experimental points obtained for each molecule (except the highest concentration). The results shown in table 5 are expressed in nM and correspond to calculate a 50% inhibitory concentration followed by un certainty about the value expressed in percentage. Table 5. The biological effect of the compounds on Plasmodium falciparum

E. faecalis CIP 103214 = assay: Antibacterial test, MIC by CLSI broth dilution; type: cell-based, Enterococcus faecalis; details: 48 h at 37°C, Mueller-Hinton
Description: as §1

[2] = system: Plasmodium falciparum chloroquine resistant (W2); assay: Antimalarial test, tritiated hypoxanthine incorporation, chloroquine resistant clone W2; type: cell-based; details: read-out: 50% inhibitory concentration followed by uncertainty about the value expressed in percentage
Description: as §2, §3, §4, §5

S. aureus CIP 103429 = assay: Antibacterial test, MIC by CLSI broth dilution; type: cell-based; details: 18 to 24 h at 37°C, Mueller-Hinton
Description: as §1

P. aeruginosa DSM 1117 = assay: Antibacterial test, MIC by CLSI broth dilution; type: cell-based; details: 18 to 24 h at 37°C, Mueller-Hinton
Description: as §1

E. coli DSM 1103 = assay: Antibacterial test, MIC by CLSI broth dilution; type: cell-based; details: 18 to 24 h at 37°C, Mueller-Hinton
Description: as §1

[3] = 3D7 clone, sensitive, 1 parasitic cycle (45h), bracket = uncertainty in %
[4] = W2 clone, chloroquine resistant, 1 parasitic cycle (45h), bracket = uncertainty in %

| Compound | minimum inhibitory concentrations (MICs) (SAAM 86) | minimum inhibitory concentrations (MICs) (SAAM 69) | minimum inhibitory concentrations (MICs) (SAAM 98) | minimum inhibitory concentrations (MICs) (SAAM 12) | minimum inhibitory concentrations (MICs) (SAAM 27) | minimum inhibitory concentrations (MICs) (SAAM 51) | minimum inhibitory concentrations (MICs) (SAAM 95) | minimum inhibitory concentrations (MICs) (SAAM 64) | IC50 [1, 3] | minimum inhibitory concentrations (MICs) (E. faecalis CIP 103214) | IC50 [2, 4] | minimum inhibitory concentrations (MICs) (S. aureus CIP 103429) | minimum inhibitory concentrations (MICs) (P. aeruginosa DSM 1117) | minimum inhibitory concentrations (MICs) (E. coli DSM 1103) | IC50 ([1]; 3D7, 45 h) | IC50 ([2]; W2, 45 h) |
| --- | --- | --- | --- | --- | --- | --- | --- | --- | --- | --- | --- | --- | --- | --- | --- | --- |
| O[C@H](c1cc(C(F)(F)F)nc2c(C(F)(F)F)cccc12)[C@@H]1CCCCN1 (relative stereo) [MQ, (±)-(R*,S*)-α-2-piperidinyl-2,8-bis(trifluoromethyl)-4-quinolinemethanol, reference compound] | 16 µg/mL (≈ 42.3 µM) | 16 µg/mL (≈ 42.3 µM) | 32 µg/mL (≈ 84.6 µM) | 16 µg/mL (≈ 42.3 µM) | 16 µg/mL (≈ 42.3 µM) | 16 µg/mL (≈ 42.3 µM) | 16 µg/mL (≈ 42.3 µM) | 32 µg/mL (≈ 84.6 µM) | 52.2 nM | 16 to 32 µg/mL | 26.5 nM | 16 to 32 µg/mL | >128 µg/mL | 64 µg/mL (≈ 169 µM) | – | – |
| CCN(CC)CCCC(C)Nc1ccnc2cc(Cl)ccc12 (centres unmarked) [CQ, chloroquine, reference compound] | – | – | – | – | – | – | – | – | – | – | – | – | – | – | 32.5 nM | 572 nM |
| O[C@@H](CNCc1ccccc1)c1cc(C(F)(F)F)nc2c(C(F)(F)F)cccc12 [Compound 1a, (R)-2-(benzylamino)-1-(2,8-bis(trifluoromethyl)quinolin-4-yl)ethanol] | 8 µg/mL (≈ 19.3 µM) | 8 µg/mL (≈ 19.3 µM) | >128 µg/mL | 4 µg/mL (≈ 9.65 µM) | 4 µg/mL (≈ 9.65 µM) | 4 µg/mL (≈ 9.65 µM) | 4 µg/mL (≈ 9.65 µM) | >128 µg/mL | 104 nM | >128 µg/mL | 41.1 nM | >128 µg/mL | >128 µg/mL | >128 µg/mL | – | – |
| CCCCCNC[C@H](O)c1cc(C(F)(F)F)nc2c(C(F)(F)F)cccc12 [Compound 1c, (R)-1-(2,8-bis(trifluoromethyl)quinolin-4-yl)-2-(pentylamino)ethanol] | 16 µg/mL (≈ 40.6 µM) | 8 µg/mL (≈ 20.3 µM) | 16 µg/mL (≈ 40.6 µM) | 8 µg/mL (≈ 20.3 µM) | 8 µg/mL (≈ 20.3 µM) | 8 µg/mL (≈ 20.3 µM) | 8 µg/mL (≈ 20.3 µM) | 16 µg/mL (≈ 40.6 µM) | 74.7 nM | 16 to 32 µg/mL | 38.2 nM | 16 to 32 µg/mL | >128 µg/mL | 32 µg/mL (≈ 81.1 µM) | – | – |
